Data on 3 molecules can be found in patent US20220160706A1, “PHARMACEUTICAL COMBINATION COMPRISING TNO155 AND A PD-1 INHIBITOR” (NOVARTIS AG, priority 2019, published 2022).

The subject of one data set is HNSCC. Conditions: HNSCC patients progressed on platinum-based chemotherapy; cited from earlier work.
A further data set relates to CD14+ monocytes. The data set is described as follows: M-CSF stimulated proliferation of CD14+ monocytes (CellTiter-Glo). It counts as cell-based, human. Conditions: 50 ng/mL M-CSF, 6 days incubation. On the procedure:
Investigation of the effect of TNO155 on M-CSF stimualted proliferation of CD14+ monocytes. Peripheral blood mononuclear cells (PBMC) were isolated from the whole blood of two donors (donor 1670 and […]) by CPT tubes and spinning at 1800 rpm for 20 minutes. CD14 positive monocytes were then isolated from PBMC using human Pan Monocyte Isolation Kit (Miltenyi Biotec #130-096-537). 5000 monocytes suspended in 100 μL RPMI media were seeded in 96 well plates with 50 ng/mL recombinant M-CSF. 24 hours later, TNO155 was added at the indicated final concentrations. A CellTiter-Glo® (CTG) cell viability assay was performed according to manufacturer's instructions using a separate plate with identically seeded cells and also performed for all plates after 6 days of incubation with TNO155. The Day 6 measurements were normalized with DMSO treated groups as 100% to evaluate the TNO155 effects on the M-CSF stimulated proliferation of monocytes and the Day 0 cell seeding measurement was indicated by the light dotted line.

In a further data set the test system is MC38 xenografts. The data set is described as follows: MC38 xenografts in immunocompromised NSG mice. It counts as in vivo, mouse.
For data set [1], the system named is DETROIT-562 (pharyngeal squamous cell carcinoma) cancer cell line. The data set is described as follows: antiproliferation in DETROIT-562. The data set is classed as cell-based. As to conditions: Homo sapiens; DETROIT-562 cells.
The nature of the next data set: in vivo. Conditions: mouse.
For the next data set, the system named is MC38 tumors. The data set is described as follows: MC38 syngeneic tumors in immune-competent C57BL/6 mice, anti-tumor activity. The data set is classed as in vivo, mouse. Conditions: day 14 post-first dose, TNO155 20 mg/kg BID, anti-PD1 10 mg/kg QW.
The subject of data set [2] is EGFR-dependent DETROIT-562 cancer cell line. The data set is described as follows: in vivo SHP2 inhibition and efficacy, DETROIT-562 xenograft. As to conditions: oral 20 mg/kg. The source says:
(§1) SHP2 inhibition can be measured by assessing biomarkers within the MAPK signaling pathway, such as decreased levels of phosphorylated ERK1/2 (pERK) and downregulation of dual specificity phosphatase 6 (DUSP6) mRNA transcript.

Data set [3] deals with phosphorylated ERK1/2 (pERK). Nature of the data set: in vitro pERK inhibition in KYSE-520. The data set is classed as cell-based. Conditions: Homo sapiens; KYSE-520 cells.
Source text: as §1

Another data set concerns MC38 cell line. Nature of the data set: MC38 cell line in vitro proliferation/viability. Conditions: MC38 (PTPN11 G503V) in vitro, absence of immune cells. The data set is classed as cell-based, mouse.
The test system of data set [4] is phosphorylated ERK1/2 (pERK). The data set is described as follows: in vitro pERK inhibition in DETROIT-562. The data set is classed as cell-based. Conditions: Homo sapiens; DETROIT-562 cells.
Source text: as §1

Data set [5] relates to KYSE-520 (esophageal squamous cell carcinoma) cancer cell line. The data set is described as follows: antiproliferation in KYSE-520. It counts as cell-based. As to conditions: Homo sapiens; KYSE-520 cells.
Source text: as §1

The next data set has as its system rodent PD-1. Nature of the data set: cross-reactivity with rodent PD-1. The data set is classed as binding.
In another data set the target is T1, human PD-1 (human, UniProt Q15116 25-167, limits assumed).
T1 construct: also called human PD1 antigen; Programmed Death 1
The data set is described as follows: Biacore (SPR); format not stated. Background: Surface plasmon resonance follows binding to a sensor surface in real time, without labels.

The subject of the next data set is IL-2 production. The data set is classed as cell-based. Conditions: human blood ex vivo, super antigen stimulation with Staphylococcal enterotoxin B (SEB).

Where “and” joins values, the source holds several entries; their conditions need not be identical. Equal values may be shown once.

T1 sequence (Q15116 25-167 limits assumed): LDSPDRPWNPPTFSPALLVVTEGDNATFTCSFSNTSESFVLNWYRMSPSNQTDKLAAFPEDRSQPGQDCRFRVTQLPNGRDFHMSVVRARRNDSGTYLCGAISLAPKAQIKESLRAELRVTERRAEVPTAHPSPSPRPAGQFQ

Consider “nivolumab: anti-programmed death-1 (PD-1) antibody”, for which, in the data set on HNSCC, the “survival rate at one year” value is 36%.

As for `C[C@@H]1OCC2(CCN(c3cnc(Sc4ccnc(N)c4Cl)c(N)n3)CC2)[C@@H]1N` [TNO155, (3S,4S)-8-(6-amino-5-((2-amino-3-chloropyridin-4-yl)thio)pyrazin-2-yl)-3-methyl-2-oxa-8-azaspiro[4.5]decan-4-amine], the “M-CSF stimulated proliferation of CD14+ monocytes” value in the data set on CD14+ monocytes was “blocked”. Moreover, in the data set with MC38 xenografts (20 mg/kg BID, MC38 in NSG mice), the anti-tumor activity result is “lack of anti-tumor activity”. Also, the “impact on downstream MAPK-signaling markers (phospho-ERK, phospho-RSK) in tumor cells” value with MC38 xenografts (MC38 with G503V mutation) was “no impact”. Moreover, the IC50 (commonly the point on the concentration scale where inhibition reaches its midpoint) in data set [1] is 470 nM; in [3], 8 nM and 0.0034 µg/mL; in data set [4] it was 35 nM; in data set [5], 100 nM. Also, the MTD in the data set “in vivo” was 20 mg/kg. Further, in the data set with MC38 tumors, the “treatment/control (T/C)” value turned out to be 33.3%. The “decrease in DUSP6 mRNA transcript” value in data set [2] (DETROIT-562 in vivo) is reported as “approximately 95%”. In addition, the tumor regression in data set [2] (twice-daily schedule, DETROIT-562) was found to be 47%. Further, the “effect on cell proliferation or viability” value in the data set on MC38 cell line is “no effect on cell proliferation or viability”.

B1: PDR001 (spartalizumab) (antibody, V domains shown)
VH: EVQLVQSGAEVKKPGESLRISCKGSGYTFTTYWMHWVRQATGQGLEWMGNIYPGTGGSNFDEKFKNRVTITADKSTSTAYMELSSLRSEDTAVYYCTRWTTGTGAYWGQGTTVTVSS
VL: EIVLTQSPATLSLSPGERATLSCKSSQSLLDSGNQKNFLTWYQQKPGQAPRLLIYWASTRESGVPSRFSGSGSGTDFTFTISSLEAEDAATYYCQNDYSYPYTFGQGTKVEIK
Take B1: the “cross-reactivity with rodent PD-1” value with rodent PD-1 is “does not cross-react”. Also, in the data set with human PD-1, the Kd – broadly, the concentration at which binding is half-saturated – worked out at 0.827 nM. Moreover, the “enhancement of IL-2 production” value in the data set with IL-2 production is listed as “approximately 2 fold”.
